Reference: ChEMBL document CHEMBL4622979, “Non-rigid Diarylmethyl Analogs of Baloxavir as Cap-Dependent Endonuclease Inhibitors of Influenza Viruses” (J Med Chem, 2020)

Experiments:
[1] = Half life in CD1 mouse small intestine assessed as (12aR)-12-(Diphenylmethyl)-7-hydroxy-3,4,12,12a-tetrahydro-1H-[1,4]oxazino[3,4-c]pyrido[2,1-f ][1,2,4]triazine-6,8-dione level at 15 mg/kg, po administered as single dose measured up to 24 hrs by LC-MS/MS analysis; assay type: ADME, organism-based; conditions: in vivo
[2] = AUClast in CD1 mouse blood assessed as (12aR)-12-(Diphenylmethyl)-7-hydroxy-3,4,12,12a-tetrahydro-1H-[1,4]oxazino[3,4-c]pyrido[2,1-f ][1,2,4]triazine-6,8-dione level at 15 mg/kg, po administered as single dose measured up to 24 hrs by LC-MS/MS analysis; assay type: ADME, organism-based; conditions: in vivo
[3] = Ratio of free drug level in CD1 mouse blood assessed as (12aR)-12-(Diphenylmethyl)-7-hydroxy-3,4,12,12a-tetrahydro-1H-[1,4]oxazino[3,4-c]pyrido[2,1-f ][1,2,4]triazine-6,8-dione level at 50 mg/kg, po to EC50 for antiviral activity against Influenza A/California/04/2009 (H1N1)pdm09 infected in MDCK cells; assay type: ADME, organism-based; conditions: in vivo
[4] = MRTlast in CD1 mouse small intestine assessed as (12aR)-12-(Diphenylmethyl)-7-hydroxy-3,4,12,12a-tetrahydro-1H-[1,4]oxazino[3,4-c]pyrido[2,1-f ][1,2,4]triazine-6,8-dione level at 15 mg/kg, po administered as single dose measured up to 24 hrs by LC-MS/MS analysis; assay type: ADME, organism-based; conditions: in vivo
[5] = MRTlast in CD1 mouse kidney assessed as (12aR)-12-(Diphenylmethyl)-7-hydroxy-3,4,12,12a-tetrahydro-1H-[1,4]oxazino[3,4-c]pyrido[2,1-f ][1,2,4]triazine-6,8-dione level at 15 mg/kg, po administered as single dose measured up to 24 hrs by LC-MS/MS analysis; assay type: ADME, organism-based; conditions: in vivo
[6] = AUClast in CD1 mouse muscle assessed as (12aR)-12-(Diphenylmethyl)-7-hydroxy-3,4,12,12a-tetrahydro-1H-[1,4]oxazino[3,4-c]pyrido[2,1-f ][1,2,4]triazine-6,8-dione level at 15 mg/kg, po administered as single dose measured up to 24 hrs by LC-MS/MS analysis; assay type: ADME, organism-based, Muscle tissue; conditions: in vivo
[7] = Tmax in CD1 mouse brain assessed as (12aR)-12-(Diphenylmethyl)-7-hydroxy-3,4,12,12a-tetrahydro-1H-[1,4]oxazino[3,4-c]pyrido[2,1-f ][1,2,4]triazine-6,8-dione level at 15 mg/kg, po administered as single dose measured up to 24 hrs by LC-MS/MS analysis; assay type: ADME, organism-based; conditions: in vivo
[8] = AUClast in CD1 mouse small intestine assessed as (12aR)-12-(Diphenylmethyl)-7-hydroxy-3,4,12,12a-tetrahydro-1H-[1,4]oxazino[3,4-c]pyrido[2,1-f ][1,2,4]triazine-6,8-dione level at 15 mg/kg, po administered as single dose measured up to 24 hrs by LC-MS/MS analysis; assay type: ADME, organism-based; conditions: in vivo
[9] = Tmax in CD1 mouse small intestine assessed as (12aR)-12-(Diphenylmethyl)-7-hydroxy-3,4,12,12a-tetrahydro-1H-[1,4]oxazino[3,4-c]pyrido[2,1-f ][1,2,4]triazine-6,8-dione level at 15 mg/kg, po administered as single dose measured up to 24 hrs by LC-MS/MS analysis; assay type: ADME, organism-based; conditions: in vivo
[10] = Tmax in CD1 mouse plasma assessed as (12aR)-12-(Diphenylmethyl)-7-hydroxy-3,4,12,12a-tetrahydro-1H-[1,4]oxazino[3,4-c]pyrido[2,1-f ][1,2,4]triazine-6,8-dione level at 15 mg/kg, po administered as single dose measured up to 24 hrs by LC-MS/MS analysis; assay type: ADME, organism-based; conditions: in vivo
[11] = MRTlast in CD1 mouse trachea assessed as (12aR)-12-(Diphenylmethyl)-7-hydroxy-3,4,12,12a-tetrahydro-1H-[1,4]oxazino[3,4-c]pyrido[2,1-f ][1,2,4]triazine-6,8-dione level at 15 mg/kg, po administered as single dose measured up to 24 hrs by LC-MS/MS analysis; assay type: ADME, organism-based; conditions: in vivo
[12] = Cytotoxicity against human PBMC cells assessed as reduction in cell viability by ATP bioluminescence assay; assay type: cell-based
[13] = AUClast in CD1 mouse brain assessed as (12aR)-12-(Diphenylmethyl)-7-hydroxy-3,4,12,12a-tetrahydro-1H-[1,4]oxazino[3,4-c]pyrido[2,1-f ][1,2,4]triazine-6,8-dione level at 15 mg/kg, po administered as single dose measured up to 24 hrs by LC-MS/MS analysis; assay type: ADME, organism-based; conditions: in vivo
[14] = Half life in CD1 mouse kidney assessed as baloxavir acid level at 15 mg/kg, po administered as single dose measured up to 24 hrs by LC-MS/MS analysis; assay type: ADME, organism-based; conditions: in vivo
[15] = MRTlast in CD1 mouse lung assessed as baloxavir acid level at 15 mg/kg, po administered as single dose measured up to 24 hrs by LC-MS/MS analysis; assay type: ADME, organism-based; conditions: in vivo
[16] = Cmax in CD1 mouse plasma assessed as baloxavir acid level at 15 mg/kg, po administered as single dose by LC-MS/MS analysis; assay type: ADME, organism-based; parameters: dose 15 mg/kg, route oral; conditions: in vivo
[17] = Tmax in CD1 mouse muscle assessed as baloxavir acid level at 15 mg/kg, po administered as single dose measured up to 24 hrs by LC-MS/MS analysis; assay type: ADME, organism-based, Muscle tissue; conditions: in vivo
[18] = Elimination rate constant in CD1 mouse liver assessed as baloxavir acid level at 15 mg/kg, po administered as single dose measured up to 24 hrs by LC-MS/MS analysis; assay type: ADME, organism-based; conditions: in vivo
[19] = MRTlast in CD1 mouse muscle assessed as baloxavir acid level at 15 mg/kg, po administered as single dose measured up to 24 hrs by LC-MS/MS analysis; assay type: ADME, organism-based, Muscle tissue; conditions: in vivo
[20] = Half life in CD1 mouse spleen assessed as baloxavir acid level at 15 mg/kg, po administered as single dose measured up to 24 hrs by LC-MS/MS analysis; assay type: ADME, organism-based; conditions: in vivo
[21] = Tmax in CD1 mouse lung assessed as baloxavir acid level at 15 mg/kg, po administered as single dose measured up to 24 hrs by LC-MS/MS analysis; assay type: ADME, organism-based; conditions: in vivo
[22] = Ratio of AUClast in CD1 mouse lung to plasma assessed as baloxavir acid level at 15 mg/kg, po administered as single dose by LC-MS/MS analysis; assay type: ADME, organism-based; conditions: other tissue
[23] = MRTlast in CD1 mouse kidney assessed as baloxavir acid level at 15 mg/kg, po administered as single dose measured up to 24 hrs by LC-MS/MS analysis; assay type: ADME, organism-based; conditions: in vivo
[24] = Half life in CD1 mouse lung assessed as baloxavir acid level at 15 mg/kg, po administered as single dose measured up to 24 hrs by LC-MS/MS analysis; assay type: ADME, organism-based; conditions: in vivo
[25] = Cmax in CD1 mouse kidney assessed as baloxavir acid level at 15 mg/kg, po administered as single dose measured up to 24 hrs by LC-MS/MS analysis; assay type: ADME, organism-based; parameters: dose 15 mg/kg, route oral; conditions: in vivo
[26] = Elimination rate constant in CD1 mouse blood assessed as baloxavir acid level at 15 mg/kg, po administered as single dose measured up to 24 hrs by LC-MS/MS analysis; assay type: ADME, organism-based; conditions: in vivo
[27] = Cmax in CD1 mouse lung assessed as baloxavir acid level at 15 mg/kg, po administered as single dose measured up to 24 hrs by LC-MS/MS analysis; assay type: ADME, organism-based; parameters: dose 15 mg/kg, route oral; conditions: in vivo

COC(=O)OCOc1c2n(ccc1=O)N(C(c1ccccc1)c1ccccc1)[C@@H]1COCCN1C2=O
t1/2 [1]: 1.28 h | AUClast [2]: 2746 ng·h/g | Ratio [3]: 44 | MRTlast [4]: 1.28 h | MRTlast [5]: 2.5 h | AUClast [6]: 7425 ng·h/g | Tmax [7]: 0.5 h | AUClast [8]: 43656 ng·h/g | Tmax [9]: 0.5 h | Tmax [10]: 0.5 h | MRTlast [11]: 3.55 h | CC50 [12]: 100 µM | AUClast [13]: 609 ng·h/g

COC(=O)OCOc1c2n(ccc1=O)N([C@@H]1c3ccccc3SCc3c1ccc(F)c3F)[C@@H]1COCCN1C2=O [BALOXAVIR MARBOXIL]
t1/2 [14]: 3.26 h | MRTlast [15]: 4.84 h | Cmax [16]: 141 ng/mL | Tmax [17]: 2 h | Kel [18]: 0.27 h⁻¹ | MRTlast [19]: 3.35 h | t1/2 [20]: 3.51 h | Tmax [21]: 2 h | Ratio AUC [22]: 16.7 | MRTlast [23]: 4.27 h | t1/2 [24]: 3.4 h | Cmax [25]: 2998 ng/g | Kel [26]: 0.21 h⁻¹ | Cmax [27]: 1188 ng/g
